Assay results published in patent US20170320848A1, “COMPOUNDS FOR USE IN ANTHELMINTHIC TREATMENT” (Bayer Animal Health GMBH, priority 2014, published 2017).

Test: Measurement of LogP values by HPLC on reversed phase columns (EEC directive 79/831 Annex V.A8)
Assay type: physicochemical
Details: acidic range, 0.1% formic acid in water and acetonitrile as eluent

SMILES	logP (HCOOH)[a]
N#Cc1cc(-c2ccc(OC(F)(F)F)cc2)ccc1C(F)(F)CNC(=O)c1ccccc1C(F)(F)F [Example 72]	4.23
O=C(NCC(F)(F)c1ccc(-c2ccc3c(c2)OC(F)(F)O3)cc1Cl)c1ccccc1C(F)(F)F [Example 71]	4.57
COc1cc(-c2cc(F)c(F)c(F)c2)ccc1C(F)(F)CNC(=O)c1ccccc1C(F)(F)F [Example 118]	4.23
COc1cc(-c2ccc(OC(F)(F)F)cc2)ccc1C(F)(F)CNC(=O)c1ccccc1C(F)(F)F [Example 77]	4.42
N#Cc1cc(-c2ccc(C(F)F)cc2)ccc1C(F)(F)CNC(=O)c1ccccc1C(F)(F)F [Example 89]	3.59
O=C(NCC(F)(F)c1ccc(-c2ccc(S(=O)(=O)C(F)(F)F)cc2)cc1Cl)c1ccccc1C(F)(F)F [Example 45]	4.32
N#Cc1cc(-c2cc(F)c(F)c(F)c2)ccc1C(F)(F)CNC(=O)c1ccccc1C(F)(F)F [Example 107]	3.89
O=C(NCC(F)(F)c1ccc(-c2ccc(N3CCOCC3)c(F)c2)cc1Cl)c1ccccc1C(F)(F)F [Example 113]	4.05
Cc1cc(-c2ccc(C(F)(F)F)cc2)ccc1C(F)(F)CNC(=O)c1ccccc1C(F)(F)F [Example 88]	4.62
O=C(NCC(F)(F)c1ccc(-c2ccc(OC(F)(F)F)cc2)cc1Cl)c1ccccc1C(F)(F)F [Example 39]	4.67
CC(=O)N1CCN(c2ccc(-c3ccc(C(F)(F)CNC(=O)c4ccccc4C(F)(F)F)c(Cl)c3)cc2)CC1 [Example 104]	3.17
O=C(NCC(F)(F)c1ccc(-c2cc(F)c(F)c(F)c2)cc1Cl)c1ccccc1Br [Example 116]	4.28
O=C(NCC(F)(F)c1ccc(-c2ccc(F)cc2)cc1Cl)c1ccccc1Br [Example 58]	4.05
N#Cc1ccc(-c2ccc(C(F)(F)CNC(=O)c3ccccc3C(F)(F)F)c(C#N)c2)cc1 [Example 73]	1.33
O=C(NCC(F)(F)c1c(F)cc(-c2ccc(C(F)(F)F)cc2)cc1F)c1ccccc1C(F)(F)F [Example 86]	4.38
Cc1cc(-c2cccc(C(F)F)c2)ccc1C(F)(F)CNC(=O)c1ccccc1C(F)(F)F [Example 90]	4.07
N#Cc1cc(-c2ccc(SC(F)(F)F)cc2)ccc1C(F)(F)CNC(=O)c1ccccc1C(F)(F)F [Example 83]	4.5
N#Cc1ccc(-c2ccc(C(F)(F)CNC(=O)c3ccccc3C(F)(F)F)c(Cl)c2)c(F)c1 [Example 93]	3.76
Cc1cc(-c2cc(Cl)c(F)c(Cl)c2)ccc1C(F)(F)CNC(=O)c1ccccc1C(F)(F)F [Example 128]	5.08
O=C(NCC(F)(F)c1ccc(-c2cc(F)c(F)c(F)c2)cc1Cl)c1ccccc1I [Example 114]	4.34
O=C(NCC(F)(F)c1c(F)cc(-c2ccc(C(F)F)cc2)cc1F)c1ccccc1C(F)(F)F [Example 81]	3.9
O=C(NCC(F)(F)c1ccc(-c2cccc(OC(F)(F)F)c2)cc1Cl)c1ccccc1C(F)(F)F [Example 42]	4.61
N#Cc1cc(-c2ccc(C(F)(F)F)cc2)ccc1C(F)(F)CNC(=O)c1ccccc1C(F)(F)F [Example 85]	4.07
N#Cc1ccc(-c2cc(F)c(C(F)(F)CNC(=O)c3ccccc3C(F)(F)F)c(F)c2)cc1 [Example 46]	3.53
O=C(NCC(F)(F)c1ccc(-c2ccc(OC(F)(F)F)c(F)c2)cc1Cl)c1ccccc1C(F)(F)F [Example 106]	4.8
COc1cc(-c2cccc(C(F)F)c2)ccc1C(F)(F)CNC(=O)c1ccccc1C(F)(F)F [Example 92]	3.81
O=C(NCC(F)(F)c1ccc(-c2ccc(N3CCOCC3)cc2)cc1Cl)c1ccccc1C(F)(F)F [Example 75]	3.83
O=C(NCC(F)(F)c1c(F)cc(-c2cccc(C(F)F)c2)cc1F)c1ccccc1C(F)(F)F [Example 82]	3.83
